Results from ChEMBL document CHEMBL1125524, “Adenosine A1 antagonists. 2. Structure-activity relationships on diuretic activities and protective effects against acute renal failure” (J Med Chem, 1992).

Key:
Rattus norvegicus [1] = assay: Serum creatinine concentration measured after intraperitoneal administration of 1 mg/kg of compound to rats(vehicle 4.19+/-0.2); type: functional
Rattus norvegicus [2] = assay: Serum creatinine concentration measured after intraperitoneal administration of 0.1 mg/kg of compound to rats(vehicle 2.9+/-0.28); type: functional
Rattus norvegicus [3] = assay: Effect on urinary excretion potassium and sodium after oral administration of 1.5 mg/kg to rats(potassium and sodium excretion in control rat is 0.165+/-0.008); type: functional, Urine
Rattus norvegicus [4] = assay: Oral diuretic activity was measured after oral administration of 25 mg/kg to rats(control volume is 0.74+/-0.05); type: functional, Urine
Rattus norvegicus [5] = assay: Ratio of urinary excretion value (urinary volume) in treated rats to that in control rats, at a peroral dose of 1.5 mg/Kg; type: functional, Urine
Rattus norvegicus [6] = assay: Ratio of urinary excretion value (urinary volume) in treated rats to that in control rats, at a peroral dose of 25 mg/Kg; type: functional, Urine
Rattus norvegicus [7] = assay: Urea nitrogen concentration measured after intraperitoneal administration of 1 mg/kg of compound to rats(vehicle 156.1+/-8.4); type: functional
Rattus norvegicus [8] = assay: Ratio of sodium ion/potassium ion concentration in treated rats to that in control rats, at a peroral dose of 1.5 mg/Kg; type: functional
Rattus norvegicus [9] = assay: Ratio of sodium ion/potassium ion concentration in treated rats to that in control rats, at a peroral dose of 25 mg/Kg; type: functional
Rattus norvegicus [10] = assay: Ratio of urinary excretion value (Na+ concentration) in treated rats to that in control rats, at a peroral dose of 1.5 mg/Kg; type: functional, Urine
Rattus norvegicus [11] = assay: Ratio of urinary excretion value (Na+ concentration) in treated rats to that in control rats, at a peroral dose of 25 mg/Kg; type: functional, Urine
Rattus norvegicus [12] = assay: Ratio of urinary excretion value (Na+ concentration) in treated rats to that in control rats, at a peroral dose of 6.25 mg/Kg; type: functional, Urine
Rattus norvegicus [13] = assay: Effect on urinary excretion potassium and sodium after oral administration of 25 mg/kg to rats(potassium and sodium excretion in control rat is […]+/-[…]); type: functional, Urine
Rattus norvegicus [14] = assay: Oral diuretic activity was measured after oral administration of 1.5 mg/kg to rats(control volume is 1.01+/-0.08); type: functional, Urine
Rattus norvegicus [15] = assay: Urea nitrogen concentration measured after intraperitoneal administration of 0.1 mg/kg of compound to rats(vehicle 93.4+/-10); type: functional
Rattus norvegicus [16] = assay: Ratio of urinary excretion value (urinary volume) in treated rats to that in control rats, at a peroral dose of 6.25 mg/Kg; type: functional, Urine
Adenosine A2 receptor [17] = molecular target: T1, Adenosine A2 receptor (Rattus norvegicus, UniProt P29276+P30543)
Rattus norvegicus [18] = assay: Serum creatinine concentration measured after intraperitoneal administration of 1 mg/kg of compound to rats(vehicle 4.70+/-0.17); type: functional
Rattus norvegicus [19] = assay: Effect on urinary excretion potassium and sodium after oral administration of 25 mg/kg to rats(potassium and sodium excretion in control rat is 0.186+/-0.020); type: functional, Urine
Rattus norvegicus [20] = assay: Percent inhibition of serum creatinine by the compound given as ratio of Cr value in treated to vehicle treated ones after intraperitoneal administration of 1 mg/kg of compound to rats(vehicle 4.70+/-0.17); type: functional; settings: ip
Rattus norvegicus [21] = assay: Ratio of urinary excretion value (urinary volume) in treated rats to that in control rats, at a peroral dose of 1.6 mg/Kg; type: functional, Urine
Rattus norvegicus [22] = assay: Urea nitrogen concentration measured after intraperitoneal administration of 1 mg/kg of compound to rats(vehicle 154.2+/-5.0); type: functional
Rattus norvegicus [23] = assay: Ratio of sodium ion/potassium ion concentration in treated rats to that in control rats, at a peroral dose of 1.6 mg/Kg; type: functional
Rattus norvegicus [24] = assay: Ratio of urinary excretion value (Na+ concentration) in treated rats to that in control rats, at a peroral dose of 1.6 mg/Kg; type: functional, Urine
Rattus norvegicus [25] = assay: Effect on urinary excretion potassium and sodium after oral administration of 1.6 mg/kg to rats(potassium and sodium excretion in control rat is 0.173+/-0.015); type: functional, Urine
Rattus norvegicus [26] = assay: Oral diuretic activity was measured after oral administration of 1.6 mg/kg to rats(control volume is 0.93+/-0.03); type: functional, Urine
Rattus norvegicus [27] = assay: Oral diuretic activity was measured after oral administration of 25 mg/kg to rats(control volume is 0.91+/-0.04); type: functional, Urine
Rattus norvegicus [28] = assay: Percent inhibition of Urea nitrogen by the compound given as ratio of UN value in treated to vehicle treated ones after intraperitoneal administration of 1 mg/kg of compound to rats(vehicle 154.2+/-5.0); type: functional; settings: ip
Adenosine receptor A1 [29] = molecular target: T2, Adenosine receptor A1 (Rattus norvegicus, UniProt P25099)
T2 sequence (P25099 whole entry): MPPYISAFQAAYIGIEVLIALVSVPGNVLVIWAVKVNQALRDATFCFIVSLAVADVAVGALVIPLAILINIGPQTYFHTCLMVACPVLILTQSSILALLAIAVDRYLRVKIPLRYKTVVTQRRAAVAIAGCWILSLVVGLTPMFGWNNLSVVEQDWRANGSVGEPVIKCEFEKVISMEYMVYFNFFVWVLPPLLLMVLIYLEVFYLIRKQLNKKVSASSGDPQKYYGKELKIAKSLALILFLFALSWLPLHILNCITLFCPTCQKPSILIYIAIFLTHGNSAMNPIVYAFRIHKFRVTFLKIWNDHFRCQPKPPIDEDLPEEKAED
Description: Binding affinity towards adenosine A1 receptor in rat cortical membranes using N6-[3H]cyclohexyladenosine as radioligand

Adenosine receptor A1 [30] = molecular target: T3, Adenosine receptor A1 (Cavia porcellus, UniProt P47745)
T3 sequence (P47745 whole entry): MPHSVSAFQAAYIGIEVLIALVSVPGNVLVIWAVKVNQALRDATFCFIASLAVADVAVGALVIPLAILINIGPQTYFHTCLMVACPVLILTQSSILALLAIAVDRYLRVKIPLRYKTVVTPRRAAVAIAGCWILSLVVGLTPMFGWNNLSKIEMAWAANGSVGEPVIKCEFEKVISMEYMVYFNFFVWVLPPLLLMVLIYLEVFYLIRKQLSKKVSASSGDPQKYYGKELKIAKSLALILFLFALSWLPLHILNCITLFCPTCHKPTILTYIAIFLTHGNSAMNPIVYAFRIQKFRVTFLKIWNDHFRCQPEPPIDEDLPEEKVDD
Description: Binding affinity against adenosine A1 receptor in guinea pig forebrain membranes using N6-[3H]cyclohexyladenosine as radioligand

Adenosine A2 receptor [31] = molecular target: T1, Adenosine A2 receptor; remark: listed apart in the source
Description: Binding affinity towards adenosine A2 receptor in rat striatal membranes using N-[3H]-ethyladenosin-5''-uronamide as radioligand

Rattus norvegicus [32] = assay: Serum creatinine concentration measured after intraperitoneal administration of 10 mg/kg of compound to rats(vehicle 3.22+/-0.35); type: functional
Rattus norvegicus [33] = assay: Percent inhibition of serum creatinine by the compound given as ratio of Cr value in treated to vehicle treated ones after intraperitoneal administration of 10 mg/kg of compound to rats(vehicle 3.22+/-0.35); type: functional; settings: ip
Rattus norvegicus [34] = assay: Oral diuretic activity was measured after oral administration of 25 mg/kg to rats(control volume is 1.21+/-0.08); type: functional, Urine
Rattus norvegicus [35] = assay: Percent inhibition of Urea nitrogen by the compound given as ratio of UN value in treated to vehicle treated ones after intraperitoneal administration of 10 mg/kg of compound to rats(vehicle 110.7+/-9.4); type: functional; settings: ip

## CCCn1c(=O)[nH]c(=O)c2[nH]c(C(C3CC3)C3CC3)nc21
Rattus norvegicus [1]
  Cr: 3 mg/dL
Rattus norvegicus [2]
  Cr: 2.96 mg/dL
Rattus norvegicus [3]
  Na: 0.202 m equiv 6hr-1 100g-1
Rattus norvegicus [4]
  Urine volume: 1.85 ml 6hr-1 100g-1
Rattus norvegicus [5]
  T/C: 1.12
Rattus norvegicus [6]
  T/C: 2.5
Rattus norvegicus [7]
  UN: 119.1 mg/dL
Rattus norvegicus [8]
  Na+/K+: 1.13
Rattus norvegicus [9]
  Na+/K+: 1.4
Rattus norvegicus [10]
  T/C: 1.22
Rattus norvegicus [11]
  T/C: 2.16
Rattus norvegicus [12]
  T/C: 1.69
Rattus norvegicus [13]
  Na: 0.328 m equiv 6hr-1 100g-1
Rattus norvegicus [14]
  Urine volume: 1.13 ml 6hr-1 100g-1
Rattus norvegicus [15]
  UN: 104.2 mg/dL
Rattus norvegicus [16]
  T/C: 1.42
Adenosine A2 receptor [17]
  Ki: > 100 µM

## FC(F)(F)c1nnc2c(NC3CCCC3)nc3ccc(Cl)cc3n12
Rattus norvegicus [18]
  Cr: 2.58 mg/dL
Rattus norvegicus [19]
  Na: 0.323 m equiv 6hr-1 100g-1
Rattus norvegicus [20]
  inhibition in vivo at 1 mg/kg: 45%
Rattus norvegicus [21]
  T/C: 1.15
Rattus norvegicus [6]
  T/C: 1.91
Rattus norvegicus [22]
  UN: 88.7 mg/dL
Rattus norvegicus [23]
  Na+/K+: 0.98
Rattus norvegicus [9]
  Na+/K+: 1.31
Rattus norvegicus [24]
  T/C: 1.22
Rattus norvegicus [11]
  T/C: 1.74
Rattus norvegicus [12]
  T/C: 1.82
Rattus norvegicus [25]
  Na: 0.212 m equiv 6hr-1 100g-1
Rattus norvegicus [26]
  Urine volume: 1.07 ml 6hr-1 100g-1
Rattus norvegicus [27]
  Urine volume: 1.74 ml 6hr-1 100g-1
Rattus norvegicus [28]
  inhibition in vivo at 1 mg/kg: 42%
Rattus norvegicus [16]
  T/C: 2.17
Adenosine receptor A1 [29]
  Ki: 5.5 nM
Adenosine receptor A1 [30]
  Ki: 36 nM
Adenosine A2 receptor [31]
  Ki: 2100 nM
Adenosine A2 receptor [17]
  Ki: 0.71 µM

## NS(=O)(=O)c1cc(C(=O)O)c(NCc2ccco2)cc1Cl [FUROSEMIDE]
Rattus norvegicus [32]
  Cr: 4.17 mg/dL
Rattus norvegicus [21]
  T/C: 1
Rattus norvegicus [6]
  T/C: 1.75
Rattus norvegicus [23]
  Na+/K+: 0.87
Rattus norvegicus [9]
  Na+/K+: 1.05
Rattus norvegicus [24]
  T/C: 0.94
Rattus norvegicus [11]
  T/C: 1.64
Rattus norvegicus [12]
  T/C: 1.62
Rattus norvegicus [33]
  inhibition in vivo at 10 mg/kg: -30%
Rattus norvegicus [34]
  Urine volume: 2.12 ml 6hr-1 100g-1
Rattus norvegicus [35]
  inhibition in vivo at 10 mg/kg: -36%
Rattus norvegicus [16]
  T/C: 1.59
